Reference: patent US8765907B2, “Production and use of antitumoral antibiotic and insecticidal cyclodepsipeptides” (Geomar Helmholtz-Zentrum fur Ozeanforschung Kiel, priority 2009, dated 2014)

Key:
larvae of the wax moth = assay: Insecticidal effect, oral toxicity in feed; type: in vivo; details: added to feed, 1 mg substance/mL solution, five larvae per box, 35° C., six days, four repeated experiments
Description: The insecticidal effect was tested against the larvae of the wax moth, a pathogen in beekeeping. […] To test the oral toxicity, 1 mg substance/mL was dissolved in a 50% aqueous ethanol solution. Five larvae each were transferred into a plastic box (2 cm in diameter) and fed with 1 g food mixture (0.8 mL substance solution, 0.2 mL glycerine (86%) and 1 g wheat bran). The control group was fed with 1 g food mixture without addition of substance (0.4 mL aq. dest., 0.4 mL ethanol, 0.2 mL glycerine (86%) and 1 g wheat bran). The incubation of the larvae was at 35° C. for six days. Subsequently, the dead larvae were counted.

[1] = system: LXF529L (lung tumour cell line); assay: Anti-proliferative effect (propidium iodide fluorescence assay), LXF529L; type: cell-based, human
Description: (§1) Xenobovide A, B and C inhibited the proliferation of all six tested human tumour cell lines: GXF251L (gastric tumour cell line), LXF529L (lung tumour cell line), MAXF401NL (breast cancer cell line), MEXF462NL (melanoma cell line), PAXF1657L (pancreas tumour cell line) and RXF486L (kidney tumour cell line).
(§2) The anti-proliferative effect was determined according to Dengler et al. (1995, Development of a propidium iodide fluorescence assay for proliferation and cytoxicity assay. Anti-Cancer Drugs 6:522-532).

[2] = system: GXF251L (gastric tumour cell line); assay: Anti-proliferative effect (propidium iodide fluorescence assay), GXF251L; type: cell-based, human
Description: as §1, §2

[3] = target: phosphodiesterase (PDE-4B2) (Homo sapiens, UniProt Q07343); assay: Inhibition of phosphodiesterase PDE-4B2; type: biochemical; details: 163 μg/mL
Description: (§3) Xenobovide A in a concentration of 163 μg/mL inhibits the phosphodiesterase (PDE-4B2) by 46%. This enzyme test was carried out according to Hohmann et al. (2009, Caboxamycin, a new antibiotic of the benzoxazole family produced by the deep-sea strain Streptomyces sp. NTK 937. The Journal of Antibiotics. 62:99-104).

[4] = system: PAXF1657L (pancreas tumour cell line); assay: Anti-proliferative effect (propidium iodide fluorescence assay), PAXF1657L; type: cell-based, human
Description: as §1, §2

[5] = target: T1, Protein Tyrosine Phosphatase 1B (PTP1B) (Homo sapiens, UniProt P18031); assay: Inhibition of protein tyrosine phosphatase 1B; type: biochemical; details: 26.1 μMol
T1 sequence (P18031 1-435): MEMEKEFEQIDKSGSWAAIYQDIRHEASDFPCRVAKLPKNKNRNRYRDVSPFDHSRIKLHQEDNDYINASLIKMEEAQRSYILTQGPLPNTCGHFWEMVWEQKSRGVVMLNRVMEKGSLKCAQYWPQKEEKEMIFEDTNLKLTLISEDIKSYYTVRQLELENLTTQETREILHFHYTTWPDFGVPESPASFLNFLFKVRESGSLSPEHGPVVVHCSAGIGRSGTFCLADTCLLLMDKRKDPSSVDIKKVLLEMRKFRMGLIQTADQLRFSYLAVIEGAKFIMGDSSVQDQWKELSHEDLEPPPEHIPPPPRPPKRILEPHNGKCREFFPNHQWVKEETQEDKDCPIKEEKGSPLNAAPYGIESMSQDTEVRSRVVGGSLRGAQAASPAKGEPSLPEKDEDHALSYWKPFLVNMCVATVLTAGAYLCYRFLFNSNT
Description: as §3, with “26.1 μMol” for “163 μg/mL”, “protein tyrosine phosphotase 1B (PTB1B)” for “phosphodiesterase (PDE-4B2)”, “59%.” for “46%.”

[6] = system: MEXF462NL (melanoma cell line); assay: Anti-proliferative effect (propidium iodide fluorescence assay), MEXF462NL; type: cell-based, human
Description: as §1, §2

acetylcholine esterase = details: read-out: IC50-value, acetylcholine esterase
Description: Testing was performed according to Birman (1985, Determination of acetylcholinesterase activity by a new chemiluminescence assay with natural substrate. Biochemical Journal. 225:825-828).

[7] = system: RXF486L (kidney tumour cell line); assay: Anti-proliferative effect (propidium iodide fluorescence assay), RXF486L; type: cell-based, human
Description: as §1, §2

[8] = system: MAXF401NL (breast cancer cell line); assay: Anti-proliferative effect (propidium iodide fluorescence assay), MAXF401NL; type: cell-based, human
Description: as §1, §2

[9] = target: glycogen synthase kinase 3beta (Homo sapiens, UniProt P49841); assay: Inhibition of glycogen synthase kinase 3beta (Kinase-Glo luminescent assay); type: biochemical
From the text: Xenobovide A and B, in a concentration of 16.3 μMol and 15.6 μMol, respectively, inhibited the glycogen synthase kinase 3beta by 21% and 43%, respectively. The performance was according to Baki et al. (2007, A high throughput luminescent assay for glycogen synthase kinase-3beta inhibitors. Assay and Drug Development Technologies. 5:75-83) using the kinase-Glo Luminescent Kinase Assay Kit of the company Promega.

Chain of glycogen synthase kinase 3beta (P49841 whole entry, species assumed): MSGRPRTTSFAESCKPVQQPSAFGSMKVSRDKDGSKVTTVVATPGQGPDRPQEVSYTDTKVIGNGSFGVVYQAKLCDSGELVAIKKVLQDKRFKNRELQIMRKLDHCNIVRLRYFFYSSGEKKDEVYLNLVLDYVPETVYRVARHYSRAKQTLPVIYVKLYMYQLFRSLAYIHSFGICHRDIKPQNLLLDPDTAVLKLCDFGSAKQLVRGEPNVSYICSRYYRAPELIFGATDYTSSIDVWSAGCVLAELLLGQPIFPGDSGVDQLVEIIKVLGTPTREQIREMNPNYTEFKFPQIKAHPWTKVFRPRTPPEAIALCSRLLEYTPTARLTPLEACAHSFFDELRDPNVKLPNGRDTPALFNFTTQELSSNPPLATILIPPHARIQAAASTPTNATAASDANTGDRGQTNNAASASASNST
Chain of phosphodiesterase (PDE-4B2) (Q07343 1-564 isoform Q07343-2, species assumed): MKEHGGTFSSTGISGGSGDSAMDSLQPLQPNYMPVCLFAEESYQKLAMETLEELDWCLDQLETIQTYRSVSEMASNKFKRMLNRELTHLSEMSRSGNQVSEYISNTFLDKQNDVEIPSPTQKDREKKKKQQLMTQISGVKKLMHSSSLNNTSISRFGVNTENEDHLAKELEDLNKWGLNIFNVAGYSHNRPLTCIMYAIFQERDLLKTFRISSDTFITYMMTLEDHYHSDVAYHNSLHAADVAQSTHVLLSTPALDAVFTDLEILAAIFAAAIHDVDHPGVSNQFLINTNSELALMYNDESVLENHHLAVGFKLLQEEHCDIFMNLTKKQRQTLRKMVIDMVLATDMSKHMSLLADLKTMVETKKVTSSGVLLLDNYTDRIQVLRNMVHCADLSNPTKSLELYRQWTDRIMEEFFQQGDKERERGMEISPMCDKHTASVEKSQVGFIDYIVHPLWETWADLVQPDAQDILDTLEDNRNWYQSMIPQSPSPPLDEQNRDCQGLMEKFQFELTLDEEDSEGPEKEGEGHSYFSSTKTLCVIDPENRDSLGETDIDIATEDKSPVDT

SMILES	insecticidal effect (dead larvae) (larvae of the wax moth)	IC50 [1]	IC50 [2]	inhibition at 163 µg/mL [3]	IC50 [4]	inhibition of protein tyrosine phosphatase 1B [5]	IC50 [6]	IC50 (acetylcholine esterase)	IC50 [7]	IC50 [8]	inhibition of glycogen synthase kinase 3beta ([9]; 16.3 μMol)	inhibition of glycogen synthase kinase 3beta ([9]; 15.6 μMol)
CCCCC(C)CC(=O)N[C@@H]1C(=O)N[C@@H](C)C(=O)NC(CC(C)C)C(=O)NC(CC(C)C)C(=O)NC(CC(C)C)C(=O)NC(CC(C)C)C(=O)N[C@@H](C)C(=O)O[C@@H]1C (single isomer, unassigned) [Xenobovide A]	death of all larvae	8.5 µM	1.6 µM	46%	3.5 µM	59%	2.7 µM	53.6 µM	12 µM	2.1 µM	21%	–
CCCCC(C)CC(=O)N[C@@H]1C(=O)N[C@@H](C)C(=O)NC(CC(C)C)C(=O)NC(CC(C)C)C(=O)NC(CC(C)C)C(=O)NC(CC(C)C)C(=O)N[C@@H](C)C(=O)O[C@@H]1C (single isomer, unassigned) [Xenobovide B]	death of all larvae	9.7 µM	2.5 µM	–	2.9 µM	–	5.3 µM	–	14.5 µM	3.2 µM	–	43%
CCCCC(C)CC(=O)N[C@@H]1C(=O)N[C@@H](C)C(=O)NC(CC(C)C)C(=O)NC(CC(C)C)C(=O)NC(CC(C)C)C(=O)NC(CC(C)C)C(=O)N[C@@H](C)C(=O)O[C@@H]1C (single isomer, unassigned) [Xenobovide C]	death of all larvae	7.8 µM	3 µM	–	10.3 µM	–	9.4 µM	–	7.6 µM	8.5 µM	–	–
